Measured values as given in ChEMBL document CHEMBL1614632, “Trend analysis of a database of intravenous pharmacokinetic parameters in humans for 670 drug compounds” (Drug Metab Dispos, 2008).
Numbered stars: 1 amine (or outer) side, 2 acyl side, 3 side chain; on linkers, the order of the positions; unused ones are H or OH. Bridge positions count the residues as written; N and C are the ends. Square brackets hold non-standard residues; d marks the D form. Peptide text beside a SMILES is read from it. * marks the point of attachment. hTyr(3S-OH,4S-OH,3'-OSO3H) = N[C@H](C(=O)O)[C@H](O)[C@@H](O)c1ccc(O)c(OS(=O)(=O)O)c1; Orn(4R-OH,5R-OH) = O=C([C@H](C[C@@H](O)[C@@H](O)N[*:3])N[*:1])[*:2]; Pro(3S-OH,4S-Me) = C[C@H]1CN[C@H](C(=O)O)[C@H]1O; X1 = CCCCCOc1ccc(-c2cc(-c3ccc(C(=O)*)cc3)no2)cc1; Gln(3R-OH) = NC(=O)C[C@@H](O)[C@H](N)C(=O)O; Hyp = O=C(O)[C@@H]1C[C@@H](O)CN1

Tests used:
clinical [1] = settings: human, in vivo, iv
clinical [2] = settings: human, in vivo, iv; remark: listed apart in the source
[3] = human, in vivo, iv
clinical [4] = settings: human, in vivo, iv, CL
clinical [5] = settings: human, in vivo, iv, Vdss
[6] = human, in vivo, iv; remark: listed apart in the source
clinical [7] = settings: human, in vivo, iv, t1/2
[8] = human, in vivo, iv; remark: listed apart in the source
[9] = human, in vivo, iv; remark: listed apart in the source
[10] = human, in vivo, iv; remark: listed apart in the source

Row | Compound | MRT (clinical [1]) | fraction unbound (clinical [2]) | t1/2 [3] | clearance (clinical [4]) | Vd (clinical [5]) | MRT [6] | half-life (clinical [7]) | Vdss [8] | CL [9] | fu [10]
1 | Clc1cccc(Cl)c1N=C1NCCN1 [CLONIDINE] | 14 h | 0.56 | 7.6 h | 4 mL/min/kg | 3.3 L/kg |  |  |  |  | 
2 | C[C@@H](O)[C@H]1C(=O)N2C(C(=O)O)=C(S[C@@H]3CN[C@H](C(=O)N(C)C)C3)[C@H](C)[C@H]12 [MEROPENEM] |  | 0.87 |  | 3.9 mL/min/kg |  | 1.3 h | 1 h |  |  | 
3 | CCC1=C[C@@H]2CN(C1)Cc1c([nH]c3ccccc13)[C@@](C(=O)OC)(c1cc3c(cc1OC)N(C)[C@H]1[C@@](O)(C(=O)OC)[C@H](OC(C)=O)[C@]4(CC)C=CCN5CC[C@]31[C@@H]54)C2 (stereo in doubt; form 2) [VINORELBINE] |  | 0.87 | 26 h |  |  | 18 h |  | 23 L/kg | 20 mL/min/kg | 
4 | O=P1(N(CCCl)CCCl)NCCCO1 (configuration not stated) [CYCLOPHOSPHAMIDE ANHYDROUS] | 11 h |  | 8 h |  |  |  |  |  | 1.1 mL/min/kg | 
5 | COc1cccc2c1C(=O)c1c(O)c3c(c(O)c1C2=O)C[C@@](O)(C(=O)CO)C[C@@H]3O[C@H]1C[C@H](N)[C@@H](O)[C@H](C)O1 [EPIRUBICIN] | 38 h |  | 36 h | 20 mL/min/kg | 45 L/kg |  |  |  |  | 
6 | O=C(CCCN1CCC(O)(c2ccc(Cl)cc2)CC1)c1ccc(F)cc1 [HALOPERIDOL] | 36 h |  |  |  | 17 L/kg |  | 35 h |  |  | 0.08
7 | O=[N+]([O-])O[C@@H]1CO[C@H]2[C@@H]1OC[C@@H]2O (stereo in doubt; form 2) [ISOSORBIDE MONONITRATE] |  |  | 4.1 h |  | 0.7 L/kg | 5.8 h |  |  | 2 mL/min/kg | 
8 | COc1cc2c(c(OC)c1OC)-c1ccc(OC)c(=O)cc1[C@@H](NC(C)=O)CC2 [COLCHICINE] | 49 h |  | 58 h | 2.1 mL/min/kg | 6.1 L/kg |  |  |  |  | 
9 | CC1CNc2c(cccc2S(=O)(=O)N[C@@H](CCCNC(=N)N)C(=O)N2CC[C@@H](C)C[C@@H]2C(=O)O)C1 (some centres not stated) [ARGATROBAN] | 0.57 h |  | 0.4 h | 5 mL/min/kg | 0.17 L/kg |  |  |  |  | 
10 | COc1cc(NC(C)CCCN)c2ncccc2c1 (configuration not stated) [PRIMAQUINE] | 11 h |  | 7.1 h | 5.8 mL/min/kg | 4 L/kg |  |  |  |  | 
11 | COC(=O)C(c1ccccc1)C1CCCCN1 (configuration not stated) [METHYLPHENIDATE] |  | 0.85 | 4.8 h |  |  | 4.5 h |  | 2.2 L/kg | 0.55 mL/min/kg | 
12 | NCCCC[C@H](NC(=O)[C@@H](Cc1cc(Br)c(O)c(Br)c1)NC(=O)N1CCC(N2Cc3ccccc3NC2=O)CC1)C(=O)N1CCN(c2ccncc2)CC1 [OLCEGEPANT] | 1.9 h |  |  | 2.6 mL/min/kg |  |  | 2.5 h | 0.31 L/kg |  | 
13 | CARBOPLATIN |  |  | 2 h |  |  | 3 h |  | 0.26 L/kg | 1.5 mL/min/kg | 1
14 | GADOVERSETAMIDE |  |  | 1.7 h |  |  | 2.2 h |  | 0.16 L/kg | 1.2 mL/min/kg | 1
15 | C[C@H]1[C@H](OC(=O)CCC(=O)O)O[C@@H]2O[C@@]3(C)CC[C@H]4[C@H](C)CC[C@@H]1[C@@]24OO3 [ARTESUNATE] | 0.32 h | 0.25 |  |  |  |  | 0.22 h |  | 1070 mL/min/kg | 
16 | COC(=O)CCc1ccc(OCC(O)CNC(C)C)cc1 (configuration not stated) [ESMOLOL] | 0.07 h | 0.59 | 0.15 h | 290 mL/min/kg | 1.2 L/kg |  |  |  |  | 

Row | Compound | MRT (clinical [1]) | fraction unbound (clinical [2]) | t1/2 [3] | clearance (clinical [4]) | Vd (clinical [5]) | MRT [6] | half-life (clinical [7]) | Vdss [8] | CL [9] | fu [10]
17 | GENTAMICIN |  |  | 4.7 h |  |  | 5.5 h |  |  |  | 1
18 | O=[N+]([O-])O[C@@H]1CO[C@H]2[C@@H]1OC[C@@H]2O (stereo in doubt; form 1) [ISOSORBIDE MONONITRATE] |  |  | 1.9 h |  |  | 2.3 h |  | 0.86 L/kg | 6.2 mL/min/kg | 
19 | COc1ccnc(C[S+]([O-])c2nc3ccc(OC(F)F)cc3[nH]2)c1OC (configuration not stated) [PANTOPRAZOLE] | 1.9 h | 0.02 |  | 2.2 mL/min/kg |  |  | 1.9 h | 0.17 L/kg |  | 
20 | O=[N+]([O-])O[C@H]1CO[C@H]2[C@@H]1OC[C@H]2O[N+](=O)[O-] [ISOSORBIDE DINITRATE] | 1 h | 0.72 |  | 31 mL/min/kg |  |  | 1.69 h | 1.9 L/kg |  | 
21 | CCCCS(=O)(=O)N[C@@H](Cc1ccc(OCCCCC2CCNCC2)cc1)C(=O)O [TIROFIBAN] |  | 0.36 |  |  |  | 1.8 h | 1.6 h | 0.99 L/kg |  | 
22 | NCCC(O)(P(=O)(O)O)P(=O)(O)O [PAMIDRONIC ACID] | 12 h |  | 32 h | 2.5 mL/min/kg | 1.8 L/kg |  |  |  |  | 
23 | COc1cc2c(cc1OC)[C@@H](Cc1cc(OC)c(OC)c(OC)c1)[N+](C)(CCCOC(=O)CC/C=C/CCC(=O)OCCC[N+]1(C)CCc3cc(OC)c(OC)cc3[C@H]1Cc1cc(OC)c(OC)c(OC)c1)CC2 (some centres not stated) | 0.87 h | 0.7 | 0.83 h | 5.2 mL/min/kg | 0.27 L/kg |  |  |  |  | 
24 | N=C(N)c1ccc(OCCCCCOc2ccc(C(=N)N)cc2)cc1 [PENTAMIDINE] | 12 h |  | 25 h | 74 mL/min/kg | 53 L/kg |  |  |  |  | 
25 | OCCN1CCN(CCCN2c3ccccc3Sc3ccc(Cl)cc32)CC1 [PERPHENAZINE] | 11 h | 0.07 |  | 27 mL/min/kg | 18 L/kg |  | 9.4 h |  |  | 
26 | CO/N=C(\C(=O)N[C@@H]1C(=O)N2C(C(=O)[O-])=C(C[n+]3cccc4c3CCC4)CS[C@H]12)c1csc(N)n1 [CEFPIROME] | 2.1 h | 0.9 |  | 1.9 mL/min/kg | 0.24 L/kg |  | 1.7 h |  |  | 
27 | CCCC(=O)N1CCCN(c2nc(N)c3cc(OC)c(OC)cc3n2)CC1 [BUNAZOSIN] | 2.5 h | 0.06 |  | 4.8 mL/min/kg | 0.72 L/kg |  | 2 h |  |  | 
28 | CCN(CC)CCCC(C)Nc1ccnc2cc(Cl)ccc12 (configuration not stated) [CHLOROQUINE] | 740 h |  | 570 h | 4.1 mL/min/kg | 140 L/kg |  |  |  |  | 
29 | COc1cc2c3cc1Oc1cc(ccc1O)C[C@@H]1c4c(cc(OC)c(O)c4Oc4ccc(cc4)C[C@@H]3N(C)CC2)CC[N+]1(C)C.[Cl-] | 2.2 h | 0.58 |  | 3.4 mL/min/kg | 0.45 L/kg |  | 2 h |  |  | 
30 | O=C1c2c(O)ccc(O)c2C(=O)c2c(NCCNCCO)ccc(NCCNCCO)c21 [MITOXANTRONE] | 25 h | 0.25 |  | 7.9 mL/min/kg | 12 L/kg |  | 53 h |  |  | 
31 | CCCCCOc1ccc(-c2cc(-c3ccc(C(=O)N[C@H]4C[C@@H](O)[C@@H](O)NC(=O)[C@@H]5[C@@H](O)[C@@H](C)CN5C(=O)[C@H]([C@H](O)CC(N)=O)NC(=O)[C@H]([C@H](O)[C@@H](O)c5ccc(O)c(OS(=O)(=O)O)c5)NC(=O)[C@@H]5C[C@@H](O)CN5C(=O)[C@H]([C@@H](C)O)NC4=O)cc3)no2)cc1 [MICAFUNGIN] (X1-[Orn(4R-OH,5R-OH)]T[Hyp][hTyr(3S-OH,4S-OH,3'-OSO3H)][Gln(3R-OH)][Pro(3S-OH,4S-Me)]; lactam 1-C) | 21 h | 0.0023 |  | 0.17 mL/min/kg | 0.21 L/kg |  | 16 h |  |  | 
